Reference: PubChem BioAssay AID1918943 (Molecular Pharmacology Branch, DTP, NCI, 2023)

Tested on: 855422-203-R-J1-PDC complex spheroid viability
Assay: Anticancer human tumor 855422-203-R-J1-PDC patient-derived bladder carcinoma cell line growth inhibition
Details: for IC50: curve of first compound; for viability, T/C: stronger effect = lower value
Summary of the method: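 Complex spheroids of tumor cells with HUVEC and human MSCs, exposed to iadademstat combined with other agents. Each agent tested in half-log steps from near clinical Cmax (else 10 microM top), DMSO ≤0.25%.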

[1] = second compound 0.1 µM, first compound 0.0316 µM
[2] = second compound 0.1 µM, first compound 0.1 µM
[3] = second compound 0.1 µM, first compound 0.316 µM
[4] = second compound 0.1 µM, first compound 1 µM
[5] = second compound 0.1 µM, first compound 3.16 µM
[6] = second compound 0.1 µM, first compound 10 µM
[7] = second compound 0.316 µM, first compound 0.0316 µM
[8] = second compound 0.316 µM, first compound 0.1 µM
[9] = second compound 0.316 µM, first compound 0.316 µM
[10] = second compound 0.316 µM, first compound 1 µM
[11] = second compound 0.316 µM, first compound 3.16 µM
[12] = second compound 0.316 µM, first compound 10 µM
[13] = second compound 1 µM, first compound 0.0316 µM
[14] = second compound 1 µM, first compound 0.1 µM
[15] = second compound 1 µM, first compound 0.316 µM
[16] = second compound 1 µM, first compound 1 µM
[17] = second compound 1 µM, first compound 3.16 µM
[18] = second compound 1 µM, first compound 10 µM
[19] = second compound 3.16 µM, first compound 0.0316 µM
[20] = second compound 3.16 µM, first compound 0.1 µM
[21] = second compound 3.16 µM, first compound 0.316 µM
[22] = second compound 3.16 µM, first compound 1 µM
[23] = second compound 3.16 µM, first compound 3.16 µM
[24] = second compound 3.16 µM, first compound 10 µM
[25] = second compound 10 µM, first compound 0.0316 µM
[26] = second compound 10 µM, first compound 0.1 µM
[27] = second compound 10 µM, first compound 0.316 µM
[28] = second compound 10 µM, first compound 1 µM
[29] = second compound 10 µM, first compound 3.16 µM
[30] = second compound 10 µM, first compound 10 µM
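Also: drug exposure lasted 7 days starting on day 3 after seeding.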
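For viability, T/C in this document: luminescence viability as percent of DMSO vehicle wells = 100%.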

CC1(C)CCC(CN2CCN(c3ccc(C(=O)NS(=O)(=O)c4ccc(NCC5CCOCC5)c([N+](=O)[O-])c4)c(Oc4cnc5[nH]ccc5c4)c3)CC2)=C(c2ccc(Cl)cc2)C1 + NC1CC1c1ccc(-c2cccc(O)c2)cc1 gave an IC50 (second compound 0.1 µM) of 6.25 µM, an IC50 (second compound 0.316 µM) of 6.32 µM and an IC50 (second compound 1 µM) of 5.81 µM. The IC50 (second compound 3.16 µM) was 5.77 µM, the IC50 (second compound 10 µM) was 5.48 µM and the viability, T/C [1] was 90.2%. It also gave a viability, T/C [2] of 104%, a viability, T/C [3] of 93.5% and a viability, T/C [4] of 94.5%. It also gave a viability, T/C [5] of 95.5%, a viability, T/C [6] of 18.6% and a viability, T/C [7] of 87%. It also gave a viability, T/C [8] of 101%, a viability, T/C [9] of 101% and a viability, T/C [10] of 103%. For the same compound, the viability, T/C [11] was 97.2%, the viability, T/C [12] was 18.6% and the viability, T/C [13] was 85.9%. It also gave a viability, T/C [14] of 92.1%, a viability, T/C [15] of 90.3% and a viability, T/C [16] of 91.5%. It also gave a viability, T/C [17] of 88.4%, a viability, T/C [18] of 15.8% and a viability, T/C [19] of 85.4%. The viability, T/C [20] was 87.3%, the viability, T/C [21] was 89.4% and the viability, T/C [22] was 91.1%. For the same compound, the viability, T/C [23] was 94.6%, the viability, T/C [24] was 13.8% and the viability, T/C [25] was 79.7%. For the same compound, the viability, T/C [26] was 82.9%, the viability, T/C [27] was 82.6% and the viability, T/C [28] was 82.5%. It also gave a viability, T/C [29] of 84.8% and a viability, T/C [30] of 14.5%.

Work on CC1COCCN1c1cc(C2(S(C)(=N)=O)CC2)nc(-c2ccnc3[nH]ccc23)n1 (stereo not given) + NC1CC1c1ccc(-c2cccc(O)c2)cc1 yielded an IC50 (second compound 0.1 µM) of 2.74 µM, an IC50 (second compound 0.316 µM) of 2.63 µM and an IC50 (second compound 1 µM) of 2.49 µM. The IC50 (second compound 3.16 µM) was 2.29 µM, the IC50 (second compound 10 µM) was 2.11 µM and the viability, T/C [1] was 93.1%. The viability, T/C [2] was 93.2%, the viability, T/C [3] was 94.2% and the viability, T/C [4] was 74.6%. For the same compound, the viability, T/C [5] was 47.2%, the viability, T/C [6] was 39.7% and the viability, T/C [7] was 102%. The viability, T/C [8] was 91.2%, the viability, T/C [9] was 97.2% and the viability, T/C [10] was 79.9%. The viability, T/C [11] was 44.4%, the viability, T/C [12] was 43.5% and the viability, T/C [13] was 87.9%. The viability, T/C [14] was 84.4%, the viability, T/C [15] was 93.4% and the viability, T/C [16] was 75%. The viability, T/C [17] was 44.1%, the viability, T/C [18] was 40.5% and the viability, T/C [19] was 88.4%. The viability, T/C [20] was 93.4%, the viability, T/C [21] was 97.1% and the viability, T/C [22] was 77.2%. For the same compound, the viability, T/C [23] was 39.7%, the viability, T/C [24] was 38.9% and the viability, T/C [25] was 104%. It also gave a viability, T/C [26] of 87.2%, a viability, T/C [27] of 101% and a viability, T/C [28] of 75.5%. It also gave a viability, T/C [29] of 34.5% and a viability, T/C [30] of 37.7%.
